Source: US9238603B1, “Batch process for the preparation of cis-2,2,4,4-tetramethylcyclobutane-1,3-diol” (EASTMAN CHEMICAL COMPANY, priority 2014, dated 2016)

Test: cis/trans solubility ratio of 2,2,4,4-tetramethylcyclobutane-1,3-diol in a solvent
Type: physicochemical
Description: The definition of cis/trans 2,2,4,4-tetramethylcyclobutane-1,3-diol solubility ratio is also known to one of ordinary skill in the art; in one embodiment, the cis/trans 2,2,4,4-tetramethylcyclobutane-1,3-diol solubility ratio can be defined as the ratio of the cis isomer solubility limit divided by the trans isomer solubility limit at a given temperature for a given solvent or solvents. For example, the cis/trans solubility ratio in water at 80° C. is about 1.0. For MIBC, the cis/trans solubility ratio at 80° C. is about 0.74.

SMILES: CC1(C)C(O)C(C)(C)C1O (centres unmarked) [2,2,4,4-tetramethylcyclobutane-1,3-diol]
- cis/trans solubility ratio (cis isomer solubility limit divided by trans isomer solubility limit) (in MIBC at 80° C.): about 0.74
- cis/trans solubility ratio (cis isomer solubility limit divided by trans isomer solubility limit) (in water at 80° C.): about 1.0
